According to US20020129385A1, “MEDTHODS FOR IMPROVING LONG-TERM MEMORY STORAGE AND RETRIEVAL” (priority 1998, published 2002):

How the values were obtained:
[1] = tested on: SC-CA1 synapse; test: LTP induced by four 100 Hz trains in hippocampal slices in the presence of drugs; type: cell-based, mouse; conditions: wild-type slices; KT5720, 20 minute pretreatment; anisomycin 30 μM one hour
Experimental: (§1) Transverse hippocampal slices were prepared as previously described (Abel et al., 1997). Mice of either sex, aged 7-18 weeks were used. Where appropriate, the experimenter was blind to animal genotype. […] For extracellular recordings, ACSF-filled glass electrodes (1-3 MW) were positioned in the stratum radiatum of area CA1. A bipolar nichrome stimulating electrode was also placed in stratum radiatum for stimulation of Schaffer collateral afferents (0.05 ms duration). Unless otherwise mentioned, test stimuli were applied at a frequency of 1 per minute (0.017 Hz), and at a stimulus intensity that elicits a fEPSP slope that was 35% of the maximum. Experiments in which changes in the fiber volley occurred, were discarded. Drugs were applied through the perfusion medium. DL-AP5, calyculin A, KT5720 and R(+)-6-Bromo-7,8-dihydroxy-3-allyl-1-phenyl-2,3,5-tetrahydro-1H-3-benzazepine (6-Br-APB) were purchased from Research Biochemicals International, Natick, Mass.

[2] = tested on: SC-CA1 synapse; test: LTP induced by two 100 Hz trains in hippocampal slices in the presence of drugs; type: cell-based, mouse; parameters: Sensitivity of LTP elicited by two trains to preincubation with the drug: dose or concentration left out as unconfirmed
Experimental: as §1

[3] = tested on: NMDA receptors; test: NMDA-mediated synaptic potentials in hippocampal slices (DNQX, reduced Mg2+); type: cell-based, mouse; conditions: 50 (M DL-AP5); 10 (M DNQX, Mg2+ 50 μM)
Experimental: as §1

[4] = tested on: calcineurin; test: Phosphatase assay in hippocampal extracts of CN98 mice; type: biochemical, mouse; conditions: CN98 mutant and wild-type hippocampal extracts
Experimental: Phosphatase assays were performed according to Hubbard and Klee (1991). Briefly, mice were injected with 5 ml/kg of pentobarbital and decapitated. Hippocampi were homogenized in 2 mM EDTA (pH 8), 250 mM sucrose, 0.1% β-mercaptoethanol and centrifuged. Supernatants were diluted in 40 mM Tris-HCl (pH 8), 0.1 M NaCl, 0.4 mg/ml bovine serum albumin, 1 mM DTT, […] okadaic acid (Buffer 1) and incubated at 30° C. for 1 min in Buffer 1 containing […] of the peptide [γ^32p]-RII subunit of cyclic AMP-dependent protein kinase (PKA) and either 0.1 mM calmodulin (SIGMA®) and 0.66 mM Ca^2( or 0.33 mM EGTA (pH 7.5). The peptide [Ala^97]-RII (Peninsula Labs) was labeled with 0.3 mM [γ^32p] ATP (NEN®) using […] catalytic subunit of PKA (FLUKA®). The reaction was stopped with 5% TCA in 0.1 M KH2PO4 and the enzyme activity was calculated as previously described (Klee et al., 1983) and is expressed in nmol Pi released/min/mg protein. The protein concentration was determined using the bicinchroninic acid protein assay kit (SIGMA®). All samples were performed in triplicate.

[5] = tested on: calcineurin; test: Phosphatase assay in hippocampal extracts of rTet-CN279 mice; type: biochemical, mouse; conditions: extracts from control and mutant mice not treated or treated with doxycycline
Experimental: Phosphatase assays were performed as described in Winder et al., 1998. Briefly, hippocampal extracts from rTet-CN279 adult mice were prepared in 2 mM EDTA (pH 8), 250 mM sucrose, 0.1% b-mercaptoethanol. Supernatants were incubated at 30° C. for 1 min in the presence of […] [[…]]-RII peptide and either 0.1 mM calmodulin and 0.66 mM Ca^2( or 0.33 mM EGTA. The enzyme activity was expressed in nmol Pi released/min/mg protein.

[6] = tested on: calcineurin; test: Phosphatase assay in hippocampal extracts of Tet-CN279 and Tet-CN273 mice; type: biochemical, mouse
Experimental: Phosphatase assays were performed as described in Winder et al., 1998. Briefly, mice were injected with 5 ml/kg of pentobarbital and decapitated. Hippocampi were dissected out, homogenized in 2 mM EDTA (pH 8), 250 mM sucrose, 0.1% β-mercaptoethanol. Supernatants were incubated at 30° C. for 1 min in presence of the […] [[…]]-RII peptide and either 0.1 mM calmodulin and 0.66 mM Ca^2+ or 0.33 mM EGTA. The reaction was stopped and the enzyme activity calculated previously as described (Klee et al., 1983; 1987). The activity was expressed in nmol Pi released/min/mg protein. The protein concentration was determined using the bicinchroninic acid protein assay kit (SIGMA®). All samples were performed in triplicate.

[7] = tested on: protein synthesis in area CA1; conditions: 30 μM; Stanton and Sarvey, 1984; Osten et al., 1996; cited from earlier work
[8] = tested on: Schaffer collateral CA1 pathway; test: LTP induced by two 100 Hz trains (I-LTP) in slices of rTet-CN279 mice treated with doxycycline (rtTA system); type: cell-based, mouse; conditions: ACSF 6 ng doxycycline/ml
Experimental: Recordings were performed as described in Winder et al., (1998). […] Test stimuli were applied at a frequency of 1 per min at an intensity that elicits an EPSP with a slope of […] of maximum. Slices from mice treated with doxycycline were incubated in ACSF containing doxycycline (6 ng/ml) for 2-3 hours before the tetanus was applied and subfused with doxycycline solution throughout the recordings.

[9] = tested on: SC-CA1 synapse; test: LTP induced by two trains in slices of Tet-CN279 mice on or off doxycycline (tTA system); type: cell-based, mouse
Experimental: as §1
The transgenic mice CN279 and CN273 were generated by microinjection of the linear construct as previously described (Hogan et al., 1994; Winder et al., 1998). Analysis of founder mice for integration of the transgene was performed by Southern blotting and PCR. The founder mice were backcrossed to C57BL6 F1/J mice to generate the transgenic lines CN279 and CN273. […]

[10] = tested on: SC-CA1 synapse; test: Chemically-induced slow-onset potentiation (L-LTP), fEPSP recording in hippocampal slices; type: cell-based, mouse; parameters: dose or concentration left out as unconfirmed
Experimental: as §1

CCCCCCOC(=O)[C@]1(O)C[C@@H]2O[C@@]1(C)n1c3ccccc3c3c4c(c5c6ccccc6n2c5c31)C(=O)NC4 [KT5720]
Decay of LTP induced by four 100 Hz trains, compared with anisomycin [1]: much more rapid decay of LTP | LTP elicited by two trains, % of baseline at 1 hr ([2]; wild-type slices, KT5720, no drug 206±23%): 153±5 % of baseline

NC(CCCP(=O)(O)O)C(=O)O (racemic) [DL-AP5]
NMDA-mediated field potentials in the presence of the drug [3]: abolished

O=C(O)CN(CCOCCOCCN(CC(=O)O)CC(=O)O)CC(=O)O [EGTA]
Phosphatase activity in the presence of the calcium chelator [4]: virtually abolished | Phosphatase activity in the presence of the Ca2+ chelator [5]: blocked | Phosphatase activity ([6]; mutant (Tet-CN279+Tet-CN273)+EGTA): 0.287±0.17 nmol Pi/min/mg | Phosphatase activity ([6]; wild-type (Tet-CN279+Tet-CN273)+EGTA): 0.432±0.11 nmol Pi/min/mg

COc1ccc(C[C@H]2NC[C@H](O)[C@H]2OC(C)=O)cc1 [anisomycin]
Sensitivity of LTP elicited by two trains to preincubation with the drug ([2]; wild-type slices, anisomycin (FIG. 4C)): completely insensitive | Effect on protein synthesis in area CA1 [7]: completely block protein synthesis

COC[C@@H]([C@H](O)[C@H](O)C(=O)NCC[C@H](C)c1nc(/C=C/C[C@@H]2O[C@]3(C[C@@H](O)[C@@H]2C)O[C@H]([C@H](C[C@H](O)[C@H](C)[C@H](O)[C@H](C)/C=C(C)/C(C)=C/C=C/C(C)=C\C#N)OC)[C@H](OP(=O)(O)O)C3(C)C)co1)N(C)C [calyculin A]
LTP induced with two 100 Hz trains after drug pretreatment, mutant versus wild-type ([2]; Tet-CN279 mutant slices, 750 nM, 30 minutes pretreatment): indistinguishable from that seen in wild-type

C[C@H]1c2cccc(O)c2C(=O)C2=C(O)[C@]3(O)C(=O)C(C(N)=O)=C(O)[C@@H](N(C)C)[C@@H]3[C@@H](O)[C@@H]21 [doxycycline]
LTP induced by two 100 Hz trains (I-LTP), % of baseline at 1 hour ([8]; rTet-CN279 Control dox): 195±9 % of baseline | LTP induced by two 100 Hz trains (I-LTP), % of baseline at 1 hour ([8]; rTet-CN279 Mutant dox): 141±8 % of baseline | LTP induced by two trains, % of baseline at 1 hr ([9]; Tet-CN279 Wt on doxycycline (1 mg/ml water, 1 ng/ml ACSF)): 191±18 % of baseline | LTP induced by two trains, % of baseline at 1 hr ([9]; Tet-CN279 mutant on doxycycline (1 mg/ml water, 1 ng/ml ACSF)): 184±18 % of baseline

C=CCN1CCc2c(cc(O)c(O)c2Br)[C@@H](c2ccccc2)C1 [6-Br-APB, R(+)-6-Bromo-7,8-dihydroxy-3-allyl-1-phenyl-2,3,5-tetrahydro-1H-3-benzazepine]
fEPSP slope, % of baseline at 3 hr after drug application ([10]; CN98 mutant slices): 181±41 % of baseline | fEPSP slope, % of baseline at 3 hr after drug application ([10]; wild-type slices): 204±40 % of baseline

Nc1ncnc2c1ncn2[C@@H]1O[C@@H]2COP(O)(=S)O[C@H]2[C@H]1O (stereo partly drawn) [Sp-cAMPS]
fEPSP slope, % of baseline at 3 hr after drug application ([10]; CN98 mutant slices): 122±17 % of baseline | fEPSP slope, % of baseline at 3 hr after drug application ([10]; wild-type slices): 124±13 % of baseline
